Patent US20110217293A1, “Uses of morelloflavone” (priority 2008, published 2011)
“Also recorded” adds a separate entry of the source.

Experiments:
[1] = test system: vascular smooth muscle cells; test: BrdU incorporation assay; assay type: cell-based, mouse; design: effect on BrdU labelling indices: dose or concentration left out as unconfirmed
Method: Mouse vascular smooth muscle cells, isolated as described (13), were maintained in 231 media (Cascade Biologics, Portland, Oreg.) supplemented with SMGS (Cascade Biologics) in a humidified incubator at 37° C. with 5% CO2. Cells from passages 4-9 were used in all experiments. All experiments were performed in subconfluent, unsynchronized cells growing in SMGS except for the lamellipodium formation assay.
Vascular smooth muscle cells were seeded at 2×10^4 cells per well in 96-well culture plates and incubated overnight. The next day, cells were found approximately 60-70% confluent. Cells were treated with various concentrations of morelloflavone ([…]) for 2 hrs and then pulsed with BrdU at 1 mM for 8 hrs. The amount of BrdU incorporated into the cells was quantified by BrdU Cell Proliferation Assay kit (Calbiochem, San Diego, Calif.), according to manufacturer's instructions. Briefly, the cells were fixed and permeabilized on tissue culture plastic, and incubated with anti-BrdU monoclonal antibody. After extensive washing, bound antibodies were visualized by goat anti-mouse IgG conjugated to horseradish peroxidase and tetra-methylbenzidine substrate and quantified by spectrophotometer at 450 nm. The protein content was determined using the Bradford assay (Bio-Rad, Hercules, Calif.).

c-Src = test: Western blot, phosphorylation of c-Src; assay type: cell-based, mouse; settings: low concentrations (0.1 & 1 mM), 5 min
Method: For the evaluation of phosphorylated FAK and c-Src, Western blot analyses were performed as described (15). Briefly, vascular smooth muscle cells were seeded on 10-cm dishes, treated with various concentrations of morelloflavone for 5 min, and harvested into RIPA buffer with protease inhibitor cocktails. Cleared cell lysates ([…] of protein) were incubated with anti-FAK or anti-c-Src antibodies at 4° C. for 1 hr in a final volume of 1 mL RIPA buffer, and incubated for another 1 hr with protein A/G agarose beads (Santa Cruz; SCBT sc-2003). Immunoprecipitated proteins were eluted into SDS-loading 7 buffer and subjected to 12% SDS-PAGE and immunoblotting using anti-FAK (Santa Cruz; A-17; sc-557) and anti-c-Src (Santa Cruz; SRC-2; sc-18) antibodies for total FAK and c-Src, respectively, and anti-phosphotyrosine antibody (Santa Cruz; PY-20; sc-508) for phosphorylated FAK and c-Src. Densitometric analyses were performed using Adobe Photoshop (Adobe Systems Incorporated, San Jose, Calif.).

RhoA = test: GTPase activation assay, RhoA; assay type: cell-based, mouse; settings: 0.1 mM; low concentrations 0.1 & 1 mM
Method: To assess the phosphorlyation status of ERK, […] of whole cell lysates was loaded onto SDS-PAGE, and Western blot analysis was done using anti-p-ERK (Santa Cruz; E-4; sc-7383) and anti-ERK (Santa Cruz; K-23; sc-94) antibodies. To detect active RhoA, Rac1 and Cdc42, generated GST-tagged RhoA binding domain of Rhotekin protein (GST-Rhotekin-RBD) and GST-tagged p21-binding domain of p21-activated kinase 1 (PAK1)(GST-PAK1-PBD) were first generated. Briefly, E. coli BL21 cells transformed with pGEX4T-PAK1-PBD or pGEX4T-Rh,otekin-RBD were grown at 37° C. and expression of recombinant protein was induced by addition of 0.1 mM IPTG for 3 hours. Cells were resuspended in lysis buffer (50 mM Tris-HCl, pH 8.0, 10% glycerol, 20% sucrose, 2 mM DTT, 1 mg/ml leupeptin, 1 mg/ml pepstatin, and 1 mg/ml aprotinin), sonicated, and centrifuged at 4° C. for 30 min at 45,000 g. The supernatant was incubated with glutathione sepharose 4B beads (GE-Amersham, Piscataway, N.J.) for 1 hour at 4° C., and then washed 3 times in lysis buffer. Using these GST-proteins, GTPase activation assays were performed as described. […]

Analysis of lipids = assay type: in vivo, mouse; settings: Ldlr−/−Apobec1−/− mice, morelloflavone diet 8 months
Method: Plasma levels of triglycerides, total cholesterol, phospholipids, and non-esterified fatty acids of control and morelloflavone-treated animals were measured and using commercially available kits according to manufacturer's instruction (Randox Laboratories, Crumlin, UK; Thermo Fisher Scientific, Waltham, Mass.; Wako Chemicals, Richmond, Va.).

sPLA2-IB = sPLA2-IB (Homo sapiens, UniProt P04054); test: sPLA2 enzyme activity assay, Group IB; assay type: biochemical; settings: recombinant human sPLA2-IB, data not shown
sPLA2-IB, sequence (P04054 23-148): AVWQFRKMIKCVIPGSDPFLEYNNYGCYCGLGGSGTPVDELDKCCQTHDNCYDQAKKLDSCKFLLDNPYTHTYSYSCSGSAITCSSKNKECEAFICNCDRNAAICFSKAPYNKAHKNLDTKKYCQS
Method: (§1) Recombinant human sPLA2 isoforms, Group IB, Group IIA, Group V, and Lp-PLA2 were obtained from R&D Systems and Cayman Chemical Co. sPLA2 enzyme activities in the presence of various concentrations of morelloflavone or other inhibitors were determined using a commercially available assay system according to the manufacturer's instructions (Cayman Chemical Co.). Thioetheramide-1-palmitylthio-2-palmitoylamido-1,2-dideoxy-sn-glycero-3-phosphorylcholine (T-PC) and methyl arachidonyl fluorophosphonate (MAFP) were used as inhibitors of sPLA2 (IB, IIA, and V) and Lp-PLA2, respectively, per manufacturers' instructions.

sPLA2-V = target: T1, sPLA2-V (Homo sapiens, UniProt P39877); test: sPLA2 enzyme activity assay, Group V; assay type: biochemical; settings: recombinant human sPLA2-V, data not shown
T1 sequence (P39877 21-138): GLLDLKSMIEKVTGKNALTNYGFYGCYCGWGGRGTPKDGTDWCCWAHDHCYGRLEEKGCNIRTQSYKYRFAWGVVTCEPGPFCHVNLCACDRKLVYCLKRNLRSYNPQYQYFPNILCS
Method: as §1

SMILES: O=C1c2c(O)cc(O)cc2O[C@H](c2ccc(O)cc2)[C@H]1c1c(O)cc(O)c2c(=O)cc(-c3ccc(O)c(O)c3)oc12 [morelloflavone, 5,7, 4′, 5″, 7″, 3″, 4″-heptahydroxy-[3,8″]-flavonylflavanone]
- effect on BrdU labelling indices [1]: decreases BrdU labelling indices
- effect on percentage of S-phase cells / DNA synthesis (BrdU) ([1]; concentrations up to 10 mM): did not significantly affect DNA synthesis; also recorded: does not affect the percentage of S-phase cells; also recorded: does not affect cell cycle progression
- phosphorylation of c-Src (c-Src): inhibited; also recorded: robustly decreased phosphorylation; also recorded: blocks
- activation of RhoA (RhoA): inhibited; also recorded: blocks the activation
- change in serum phospholipid concentration (Analysis of lipids): no changes
- non-esterified fatty acid levels (Analysis of lipids): 0.89±0.13
- serum cholesterol (Analysis of lipids): 507.2 ± 95.8 mg/dL
- serum triglycerides (Analysis of lipids): 179.9±28.0
- IC50 (sPLA2-IB): > 10 µM
- IC50 (sPLA2-V): > 10 µM
